# Where “and” joins values, the source holds several entries; their conditions need not be identical. Equal values may be shown once.
# What was measured:
# Class II HLA alleles = assay: Soluble HLA competition binding assay, panel of five alleles (summary statements); parameters: species or system human
# Experimental: HLA Binding Assay. Binding activity was analyzed at EpiVax (Providence, R.I.). The binding assay used (Steere A C et al., (2006), J Exp Med, 2003(4):961-71) yielded an indirect measure of peptide-MHC affinity. Soluble HLA molecules were loaded onto a 96-well plate with the unlabeled experimental Tregitopes and labeled control peptide. Once the binding mixture reached steady equilibrium (at 24 hours), the HLA-Tregitope complexes were captured on an ELISA plate coated with anti-human DR antibody and detected with a Europium-linked probe for the label (PerkinElmer, Waltham, Mass.). Time-resolved fluorescence measuring bound labeled control peptide is assessed by a SpectraMax® M5 unit (Spectramax, Radnor, Pa.). Binding of experimental Tregitopes was expressed as the percent inhibition of the labeled control peptide (experimental fluorescence/control fluorescence multiplied by 100).
# The experimental Tregitopes were solvated in DMSO. The diluted Tregitopes were then mixed with binding reagents in aqueous buffering solution, yielding a range of final concentrations from 100,000 nM down to 100 nM. Tregitopes were then assayed against a panel of five common Class II HLA alleles: HLA-DRB1*0101, HLA-DRB1*0301, HLA-DRB1*0701, HLA-DRB1*1101, and HLA-DRB1*1501. […]
# [1] = system: T cells in PBMCs from lupus patients; conditions: cited from earlier work
# [2] = system: CD4+ effector memory T cells; assay type: cell-based, human
# [3] = system: CD4+CD25+ FoxP3+ regulatory T cells; assay type: cell-based, human
sequence,measurement,setting,value
EKDIHSGLIGPLLI (listed as Homo sapiens) [SEQ ID NO: 6],HLA binding profile,Class II HLA alleles,highly-restricted HLA binding profiles
FAVFDENKSWYLEDN (listed as Homo sapiens) [SEQ ID NO: 4],HLA binding profile,Class II HLA alleles,highly-restricted HLA binding profiles
RIHMVYSKRSGKPRGYAFIEY (listed as Homo sapiens) [peptide 131-151],randomly selected lupus patients whose PBMCs contain T cells that proliferate in response to the peptide,[1],40%
IHSIHFSGHVFTVRK (listed as Homo sapiens) [SEQ ID NO: 2],CD4+ T cell activation and proliferation of Teff responding to TT,[2],inhibited both CD4+ T cell memory responses
same,CD4+ T cell activation reduced by,[2],70% and 50%
"KIVFKNMASRPYSIY (listed as Homo sapiens) [SEQ ID NO: 3, Factor V derived peptide, used as negative control peptide]",relative proportion of highly proliferative regulatory T cells (CFSE low FoxP3+) among CD25+ Granzyme B+ CD4+ T cells,[3],no significant effect
same,activated (CD25 high) proliferating (CFSE low) CD4 T cells stimulated by Tetanus Toxoid,[2],no significant inhibitory effect
same,activated effector CD4+ T cells (CD4+/CD25-high/FoxP3-intermediate) reacting to Tetanus Toxoid,[2],no appreciable effect
same,proliferation of CD4- cell population,[2],little inhibitory effect
same,proliferation of total CD4+ T cells (CFSE low),[2],little to no effect

# From patent publication US11441122B2, “Regulatory T cell epitopes” (EpiVax, Inc., priority 2017, dated 2022)
